Structures can show the parent of a compound that is named as a salt.
Key:
[1] = test system: imiquimod (IMQ) mouse model of psoriasis; experiment: Imiquimod (IMQ) mouse model of psoriasis; type: in vivo; conditions: oral dose of 90 mg-eq MMF/kg BID for 10 days in male Balb/C mice
Experimental: Imidquimod model of skin inflammation (Fits et al The Journal of Immunology, 2009, 182: 5836-5845). 10-12 week old BALB/c, I117c+/+ or I117c−/−, or I117re+/+ or I117re−/− mice were administered 50 mg Aldara cream (5% Imidquimod in Graceway, 3M) in the shaved back and right ear daily for 5 days. Clinical scoring and ear thickness measurements were performed daily. Scoring was based upon the manifestation of psoriatic symptoms, such as erythema, scaling and thickness: 0, No disease. 1, Very mild erythema with very mild thickening and scaling involving a small area. 2, Mild erythema with mild thickening and scaling involving a small area. 3, Moderate erythema with moderate thickening and scaling (irregular and patchy) involving a small area (<25%). 4, Severe erythema with marked thickening and scaling (irregular and patchy) involving a moderate area (25-50%). 5, Severe erythema with marked thickening and scaling (irregular and patchy) involving a large area (>50%). Ear and back tissue were harvested on day 5 for histological evaluation.
Efficacy of compounds of the disclosure and DMF is compared in the imiquimod (IMQ) mouse model of psoriasis. Balb/c mice (10 males/group) received daily topical IMQ (5% cream) on shaved back and right ear for 5 days as described above. Animals received oral dose of a representative compound of the disclosure or DMF (45 or 90 mg-eq MMF/kg twice daily) or vehicle from Day −5 to Day 5. Erythema score is the primary outcome measure.
The Erythema score values of the compounds tested at an oral dose of 90 mg-eq MMF/kg BID for 10 days in male Balb/C mice are set forth in Table 3, below.

[2] = test system: stomach lesions in the rat; experiment: Annamalai-Ma gastrointestinal irritation rat model; type: in vivo; conditions: rats, oral 180 mg-equivalents MMF/kg once per day for 4 days; score 0 (normal mucosa) to 5 (severe ulceration), Table 4
Description: At least one MMF prodrug, e.g., dimethyl fumarate, is known to cause gastrointestinal irritation. The Annamalai-Ma gastrointestinal irritation rat model is predictive of gastrointestinal irritation of MMF prodrugs in humans. This animal model has several common features of other published GI irritation animal models including the Whiteley-Dalrymple model described in Models of Inflammation: Measuring Gastrointestinal Ulceration in the Rat, Pharmacology (1998) 10.2.1-10.2.4; as well as the animal models disclosed in Joseph J. Bertone, DVM, MS, DipACVIM. Prevalence of Gastric Ulcers in Elite, Heavy Use Western Performance Horses, AAEP Proceedings/Vol. 46/2000; and İsbíl Büyükcoskun N., Central Effects of Glucagon-like Peptide-1 on Cold Restraint Stress-induced Gastric Mucosal Lesions, Physiol. Res. 48: 451-455, 1999.
In order to assess gastrointestinal irritation using this model, rats are treated orally with either vehicle or the MMF prodrug of the present disclosure (n=10 per group) at 180 mg-equivalents MMF/kg of animal body weight, dosed once per day for 4 days, followed by necropsy and gastrointestinal evaluation at 24 hrs after the final dose. Evans Blue dye is injected IV (tail vein) to visually emphasize any lesions in the gastrointestinal tissue.
Accordingly, rats are dosed once per day for 4 consecutive days with 180 mg-equivalents MMF/kg body weight per day. The animals are fasted overnight prior to necropsy. On Day 5, to help visualize lesions, 1 mL of 1% Evan's blue in saline is injected into the tail vein 30 minutes prior to euthanasia. The animals are euthanized by inhalation of carbon dioxide. A partial necropsy, limited to the abdominal cavities, is then performed. The stomach and small intestine are removed. Residual material is washed away, using an irrigation syringe filled with saline. The stomach is cut along the larger curvature and washed gently with normal saline, and is examined for any lesions. The stomachs are scored in accordance with the scoring system outlined in Table 4.

[3] = cited from earlier work

| SMILES | melting point | Erythema Score (% Relative to IMQ) [1] | Stomach Irritation Score [2] | Aqueous solubility [3] |
| --- | --- | --- | --- | --- |
| COC(=O)/C=C/C(=O)OCCCN1CCOCC1 (as salt: HCl) [Compound 4, Methyl(3-morpholinopropyl)fumarate HCl salt] | 185.2 °C |  |  |  |
| COC(=O)/C=C/C(=O)OCCN1CCOCC1 [Compound 2, Methyl(2-morpholinoethyl)fumarate HCl salt] |  | 69 % Relative to IMQ | 0 |  |
| COC(=O)/C=C/C(=O)OC [DMF, dimethyl fumarate, reference compound] |  | 74.1 % Relative to IMQ | 4.6 | poor |
| COC(=O)/C=C/C(=O)OCCCCCN1CCOCC1 (as salt: HCl) [Compound 8, Methyl(5-morpholinopentyl)fumarate HCl salt] | 150 °C |  |  |  |
| COC(=O)/C=C/C(=O)OCCCCCCN1CCOCC1 [Compound 10, Methyl(6-morpholinohexyl)fumarate HCl salt] |  | 66.7 % Relative to IMQ | 0 |  |
| COC(=O)/C=C/C(=O)OCCCCCN1CCOCC1 [Compound 8, Methyl(5-morpholinopentyl)fumarate HCl salt] |  | 59.3 % Relative to IMQ | 0 |  |
| COC(=O)/C=C/C(=O)OCCCCN1CCOCC1 [Compound 6, Methyl(4-morpholinobutyl)fumarate HCl salt] |  | 57.1 % Relative to IMQ | 0.6 |  |
| COC(=O)/C=C/C(=O)OCC(=O)N1CCOCC1 [CC-1, reference compound] |  |  | 2.9 |  |
| COC(=O)/C=C/C(=O)OCCCCN1CCOCC1 (as salt: HCl) [Compound 6, Methyl(4-morpholinobutyl)fumarate HCl salt] | 145.5 °C |  |  |  |
| COC(=O)/C=C/C(=O)OCCCCCCN1CCOCC1 (as salt: HCl) [Compound 10, Methyl(6-morpholinohexyl)fumarate HCl salt] | 104.1 °C |  |  |  |
| COC(=O)/C=C/C(=O)OCCCN1CCOCC1 [Compound 4, Methyl(3-morpholinopropyl)fumarate HCl salt] |  | 73.3 % Relative to IMQ | 0 |  |
